The values below come from paper PMC5444726, “A CD44-specific peptide, RP-1, exhibits capacities of assisting diagnosis and predicting prognosis of gastric cancer” (Oncotarget, 2017).

For data set [1], the system named is SGC-7901 subcutaneous xenograft. The data set is described as follows: In vivo fluorescence imaging and biodistribution in SGC-7901 xenograft mice.
Protocol: All animal procedures were approved by the Ethics Committee of Xi’an Jiaotong University and conducted in accordance with the Helsinki Declaration (1975). Athymic nude mice (male, 4–5 weeks old, with a body weight of 20–25 g) were obtained from the Animal Experiment Center of Xi’an Jiaotong University, Xi’an, China. The SGC-7901 tumor xenografts were generated by subcutaneous injection of 5–8 × 10^6 SGC-7901 cells suspended in 200 μL culture medium into the left axilla of mice. The cells were allowed to grow for 2 weeks until tumor volume reached an estimate of 1 cm^3.
In vivo fluorescence imaging was performed with the IVIS Spectrum Imaging System and analyzed with the IVIS Living Imaging 4.2 software (Xenogen, California, USA). Identical imaging settings (exposure time: 40s; binning: 16; lens aperture [f/stop]: 4; field of view: 13.3) were used for capturing images. Fluorescent intensity was normalized and presented as (p/sec/cm^2/sr)/(μW/cm^2). The mice from the experimental group (n = 10) and control group (n = 10) were intravenously injected with 1 mg/kg FITC-RP-1 and FITC-WYP, respectively. Mice anesthetized with isoflurane were subjected to optical imaging at each hour since 1h after injection. Finally, solid tumors, tissues, and organs were all harvested and rinsed with PBS for further analysis of the distribution of FITC-RP-1.
The test system of data set [2] is CD44 on MKN-28-CD44-ox cells. The data set is described as follows: Confocal immunofluorescence of peptide binding to CD44-overexpressing MKN-28 cells. It is filed as cell-based, human. Conditions: 100 μM Alexa Fluor 594 labeled peptide, 20 min, fixed cells, confocal microscopy. As to the method:
(§1) Plasmids containing cDNA of CD44 protein were synthesized by GENECHEM, Shanghai, China. Using Pfu polymerase and two oligonucleotides ([…] and […]), the CD44 cDNA was cloned into Xhol and ECOR1 sites of GV146 (GENECHEM, Shanghai, China) by recombinant PCR. Then, CD44-negative MNK-28 cells were transfected with the plasmid with Lipofectamine 2000 reagent (Invitrogen, California, USA), and then the efficiency of CD44 expression in MKN-28 cells was tested. Finally, two cell lines were generated as following: MKN-28-con with no CD44 expression and MKN-28-CD44-ox with CD44 overexpression labeled with enhanced green fluorescent protein (EGFP).
(§2) For the preparation of confocal laser microscopy, the transfected MNK-28 cancer cells were washed with phosphate buffer saline (PBS) three times, then fixed with 4% paraformaldehyde at ambient temperature for 30 min, and blocked with 5% BSA (w/v) in PBS at 37°C for 1 h. The blocked cells were sequentially incubated with 100 μM RP-1 or WYP labeled with Alexa Fluor 594 for 20 min, and counterstained with 4,6-diamidino-2-phenylindole (DAPI). […] For the evaluation of the correlation of fluorescent intensities between CD44-EGFP and RP-1-Fluor 594, a semi-quantitative analysis was performed with ImageJ 1.48v software (National Institutes of Health, Maryland, USA) by randomly selecting and observing 10 fields of vision. […]

The subject of data set [3] is MKN-28 cells not expressing CD44 transgenes. The data set is described as follows: Confocal immunofluorescence of peptide binding to non-CD44 MKN-28 cells. It is filed as cell-based, human. Conditions: 100 μM Alexa Fluor 594 labeled peptide, 20 min, co-culture with CD44-overexpressing cells, confocal microscopy. The protocol:
as §1, §2

A further data set concerns SGC-7901 tumor tissue. The experiment in a line: Fluorescence microscopy of frozen xenograft sections after injection. It is filed as in vivo, athymic nude mice. Conditions: 3 h after i.v. injection of peptide. The protocol:
Once fluorescence signal reached its peak at the site of tumor, subcutaneous tumor tissues were harvested for further experiment. After shock-frozen with liquid nitrogen, tumor tissues were cut into 5 μm sections and fixed in 4% paraformaldehyde at ambient temperature for 30 min. The coverslips were mounted with glycerol–gelatin containing anti-fading buffer (Bioworld, Minnesota, USA). Finally, the fluorescence images of frozen sections were captured with a fluorescent microscope (Nikon-Eclipse, Tokyo, Japan)

[4] abbreviates: excised tissue, 3 h after i.v. FITC-RP-1, 1 μg/g.

As for “WHPWSYLWTQQA [RP-1, CD44-specific peptide … screened from a 12-mer phage peptide library]”, in data set [1] (3 h after i.v. injection of FITC-labeled peptide, 1 μg/g), the “organs with accumulation (fluorescence of excised tissues)” value was “accumulation of RP-1 in tumor tissue and liver”. The “fluorescence signal remaining (elimination)” value in data set [1] (6 h after intravenous injection) is listed as “almost undetectable”. Besides, in data set [1] (setting [4]), the “fluorescent intensity, kidney” value was 2.00 × 10^8 (p/sec/cm^2/sr) /(μW/cm^2); the “fluorescent intensity, liver” value is 5.58 × 10^8 (p/sec/cm^2/sr) /(μW/cm^2); the “fluorescent intensity, stomach” value is 2.28 × 10^8 (p/sec/cm^2/sr) /(μW/cm^2). The “fluorescent intensity, tumor” value in data set [1] (excised tissue, 3 h after i.v. FITC-RP-1, 1 μg/g, tumor vs other organs P < 0.001) is reported as 1.14 × 10^9 (p/sec/cm^2/sr) /(μW/cm^2). In data set [2], the “binding of peptide to CD44 on the cell membrane” value is “apparent binding of RP-1 peptides to CD44 on the cell membrane”. Further, in data set [3], the “binding of peptide to cells without CD44” value was “bound considerably lower amounts of RP-1 peptide”. In the data set on SGC-7901 tumor tissue, the “fluorescence on tumor cells in frozen sections” value was “fluorescence signals were observed both on cell membrane and in cytoplasm”.
